Reference: patent US11236044B2, “Selective inhibitors of 12(S)-lipoxygenase (12-LOX) and methods for use of the same” (THE REGENTS OF THE UNIVERSITY OF MICHIGAN, priority 2018, dated 2022)
Read-outs that look alike come from different tables or passages of the source.

Assays:
[1] = Pharmacokinetic study of the inhibitors in mice blood plasma (PO and IV); assay type: in vivo; settings: for concentration at 2 h / concentration at 4 h / concentration at 7 h: mouse, plasma, 30 mg/kg
Protocol: Pharmacokinetic Study of the Inhibitors in Mice Blood Plasma
The blood plasma concentration of compounds A1, A2, and A4 in mice was determined following per os, oral compound administration (“PO”) and intravenous (“IV”) administration
Calibration curve. The concentration range was evaluated from 2.5-5000 ng/ml for compound A2, 1-5000 ng/ml for compound A4, and 5-5000 ng/ml for compound A1. The curve was built with linear regression with weighing (1/X2). The linear regression analysis was performed by plotting the peak area ratio (y) against the concentration (x) in ng/mL.
Instrument Conditions. The LC-MS and mass spectrometry conditions for the compounds tested are shown below.
Results. The individual and average compound A1, A2, and A4 concentration-time data for IV and PO dosed groups are listed in Table 1, and graphically presented in FIG. 1.

[2] = target: T1, bovine cyclooxygenase (“COX”)-1 (Bos taurus, UniProt O62664); settings: 12-LOX versus bovine COX-1; cited from earlier work
T1 sequence (O62664 25-600): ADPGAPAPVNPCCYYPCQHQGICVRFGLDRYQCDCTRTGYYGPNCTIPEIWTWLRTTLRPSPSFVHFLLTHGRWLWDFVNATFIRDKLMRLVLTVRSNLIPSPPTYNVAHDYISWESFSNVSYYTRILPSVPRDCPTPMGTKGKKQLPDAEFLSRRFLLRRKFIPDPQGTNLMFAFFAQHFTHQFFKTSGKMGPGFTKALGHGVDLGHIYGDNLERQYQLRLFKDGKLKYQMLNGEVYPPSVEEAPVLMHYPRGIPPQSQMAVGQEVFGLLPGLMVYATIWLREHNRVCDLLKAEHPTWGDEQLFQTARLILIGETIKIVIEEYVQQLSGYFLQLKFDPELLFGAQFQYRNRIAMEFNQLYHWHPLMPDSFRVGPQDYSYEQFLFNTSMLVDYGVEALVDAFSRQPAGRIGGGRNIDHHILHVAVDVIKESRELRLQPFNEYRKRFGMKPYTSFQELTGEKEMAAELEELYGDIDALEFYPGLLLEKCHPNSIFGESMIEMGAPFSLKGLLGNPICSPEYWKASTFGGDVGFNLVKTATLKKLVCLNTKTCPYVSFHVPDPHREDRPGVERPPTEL

[3] = cited from earlier work
[4] = in vivo; cited from earlier work
[5] = system: thrombus formation and vessel occlusion; settings: cited from earlier work
[6] = cited from earlier work; remark: listed apart in the source
[7] = target: reticulocyte 15-human lipoxygenase type-1 (Homo sapiens, UniProt P16050); settings: 12-LOX versus paralog; cited from earlier work
human COX-2 = target: T2, human COX-2 (Homo sapiens, UniProt P35354); settings: 12-LOX versus human COX-2; cited from earlier work
T2 sequence (P35354 18-604): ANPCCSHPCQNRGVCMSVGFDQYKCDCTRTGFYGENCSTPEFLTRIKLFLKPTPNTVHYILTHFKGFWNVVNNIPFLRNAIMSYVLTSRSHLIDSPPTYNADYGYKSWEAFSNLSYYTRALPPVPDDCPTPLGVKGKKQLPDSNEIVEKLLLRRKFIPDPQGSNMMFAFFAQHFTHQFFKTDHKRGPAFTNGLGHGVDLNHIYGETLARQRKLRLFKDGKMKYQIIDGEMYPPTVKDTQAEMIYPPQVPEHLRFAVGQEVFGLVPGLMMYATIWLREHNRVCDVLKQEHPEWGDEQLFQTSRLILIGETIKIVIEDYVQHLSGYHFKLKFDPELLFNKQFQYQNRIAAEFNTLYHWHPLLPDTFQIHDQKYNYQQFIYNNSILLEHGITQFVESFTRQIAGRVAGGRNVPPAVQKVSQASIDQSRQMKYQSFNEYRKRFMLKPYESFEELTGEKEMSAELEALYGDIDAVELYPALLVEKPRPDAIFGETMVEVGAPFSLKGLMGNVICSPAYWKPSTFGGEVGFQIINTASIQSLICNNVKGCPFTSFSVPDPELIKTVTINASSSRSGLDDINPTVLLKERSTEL

[8] = target: T3, epithelial 15-human lipoxygenase type-2 (Homo sapiens, UniProt O15296); settings: 12-LOX versus paralog; cited from earlier work
T3 sequence (O15296 1-676): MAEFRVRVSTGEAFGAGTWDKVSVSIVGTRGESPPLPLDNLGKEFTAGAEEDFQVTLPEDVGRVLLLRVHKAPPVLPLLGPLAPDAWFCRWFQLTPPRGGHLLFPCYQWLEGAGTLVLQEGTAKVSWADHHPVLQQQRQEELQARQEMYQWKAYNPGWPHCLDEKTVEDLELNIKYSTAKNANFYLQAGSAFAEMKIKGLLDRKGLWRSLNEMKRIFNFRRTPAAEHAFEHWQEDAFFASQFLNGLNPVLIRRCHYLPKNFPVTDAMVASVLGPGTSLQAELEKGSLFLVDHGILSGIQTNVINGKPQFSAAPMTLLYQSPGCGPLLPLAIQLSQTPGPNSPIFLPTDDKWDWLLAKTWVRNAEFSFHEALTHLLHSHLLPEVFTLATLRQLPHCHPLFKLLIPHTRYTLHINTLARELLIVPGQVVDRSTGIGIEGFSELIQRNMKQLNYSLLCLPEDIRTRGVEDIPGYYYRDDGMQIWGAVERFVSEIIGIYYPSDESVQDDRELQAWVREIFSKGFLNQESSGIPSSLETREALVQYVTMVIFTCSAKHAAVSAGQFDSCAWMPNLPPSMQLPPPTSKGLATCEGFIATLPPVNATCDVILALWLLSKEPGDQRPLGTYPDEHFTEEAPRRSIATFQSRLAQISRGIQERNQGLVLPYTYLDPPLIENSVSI

5-human lipoxygenase = target: T4, 5-human lipoxygenase (Homo sapiens, UniProt P09917); settings: 12-LOX versus paralog; cited from earlier work
T4 sequence (P09917 1-674): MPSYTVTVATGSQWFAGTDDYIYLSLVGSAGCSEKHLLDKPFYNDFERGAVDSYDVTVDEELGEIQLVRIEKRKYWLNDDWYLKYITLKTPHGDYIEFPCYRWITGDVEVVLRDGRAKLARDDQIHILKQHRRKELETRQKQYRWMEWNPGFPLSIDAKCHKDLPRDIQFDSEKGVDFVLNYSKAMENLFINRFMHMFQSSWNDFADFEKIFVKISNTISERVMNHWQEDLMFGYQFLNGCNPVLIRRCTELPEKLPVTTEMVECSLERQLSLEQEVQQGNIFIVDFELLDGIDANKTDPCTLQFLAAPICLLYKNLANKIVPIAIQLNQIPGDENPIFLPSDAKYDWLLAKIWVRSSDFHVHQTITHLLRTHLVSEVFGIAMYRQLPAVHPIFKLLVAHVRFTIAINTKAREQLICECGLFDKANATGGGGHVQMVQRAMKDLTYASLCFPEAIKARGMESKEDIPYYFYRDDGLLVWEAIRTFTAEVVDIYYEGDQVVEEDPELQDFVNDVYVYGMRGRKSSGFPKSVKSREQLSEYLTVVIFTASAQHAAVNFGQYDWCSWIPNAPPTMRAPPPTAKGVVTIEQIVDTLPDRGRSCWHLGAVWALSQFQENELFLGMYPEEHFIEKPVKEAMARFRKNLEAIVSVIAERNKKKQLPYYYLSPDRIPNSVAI

[9] = iv, IV 30 mg/kg, 2 h, n=3 (outliers excluded), read-out: Concentration in Plasma, Mean
[10] = iv, IV 30 mg/kg, 2 h, read-out: Concentration in Plasma, Mouse 1
[11] = iv, IV 30 mg/kg, 2 h, read-out: Concentration in Plasma, Mouse 2
[12] = iv, IV 30 mg/kg, 2 h, read-out: Concentration in Plasma, Mouse 3
[13] = iv, IV 30 mg/kg, 4 h, read-out: Concentration in Plasma, Mouse 1
[14] = iv, IV 30 mg/kg, 4 h, read-out: Concentration in Plasma, Mouse 3
[15] = iv, IV 30 mg/kg, 7 h, n=3 (outliers excluded), read-out: Concentration in Plasma, Mean
[16] = iv, IV 30 mg/kg, 7 h, read-out: Concentration in Plasma, Mouse 1
[17] = iv, IV 30 mg/kg, 7 h, read-out: Concentration in Plasma, Mouse 2
[18] = iv, IV 30 mg/kg, 7 h, read-out: Concentration in Plasma, Mouse 3
[19] = po, PO 30 mg/kg, 2 h, n=3 (outliers excluded), read-out: Concentration in Plasma, Mean
[20] = po, PO 30 mg/kg, 2 h, read-out: Concentration in Plasma, Mouse 3
[21] = po, PO 30 mg/kg, 4 h, n=3 (outliers excluded), read-out: Concentration in Plasma, Mean
[22] = po, PO 30 mg/kg, 4 h, read-out: Concentration in Plasma, Mouse 1
[23] = po, PO 30 mg/kg, 4 h, read-out: Concentration in Plasma, Mouse 3
[24] = po, PO 30 mg/kg, 7 h, n=3 (outliers excluded), read-out: Concentration in Plasma, Mean
[25] = po, PO 30 mg/kg, 7 h, read-out: Concentration in Plasma, Mouse 1
[26] = po, PO 30 mg/kg, 7 h, read-out: Concentration in Plasma, Mouse 2

Chain of reticulocyte 15-human lipoxygenase type-1 (P16050 whole entry): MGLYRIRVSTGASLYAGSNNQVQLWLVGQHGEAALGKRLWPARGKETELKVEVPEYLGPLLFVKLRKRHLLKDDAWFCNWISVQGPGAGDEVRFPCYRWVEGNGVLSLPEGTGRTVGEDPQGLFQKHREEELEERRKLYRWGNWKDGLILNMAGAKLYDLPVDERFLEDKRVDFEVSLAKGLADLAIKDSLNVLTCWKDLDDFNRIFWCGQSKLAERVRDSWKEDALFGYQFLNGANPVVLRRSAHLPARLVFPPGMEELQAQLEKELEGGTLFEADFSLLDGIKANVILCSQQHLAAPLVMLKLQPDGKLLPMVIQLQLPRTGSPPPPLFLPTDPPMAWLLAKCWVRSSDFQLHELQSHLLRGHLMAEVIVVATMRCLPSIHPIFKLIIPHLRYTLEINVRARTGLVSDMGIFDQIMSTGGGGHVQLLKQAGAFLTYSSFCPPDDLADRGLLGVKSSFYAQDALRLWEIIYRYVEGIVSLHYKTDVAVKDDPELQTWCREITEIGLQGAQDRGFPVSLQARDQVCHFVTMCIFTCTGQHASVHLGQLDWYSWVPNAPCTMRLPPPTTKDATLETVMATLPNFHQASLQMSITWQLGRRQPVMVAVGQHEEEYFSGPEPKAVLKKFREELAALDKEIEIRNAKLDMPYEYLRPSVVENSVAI

Structure (SMILES)	concentration at 2 h [1, 9] [ng/mL]	concentration at 2 h [1, 10] [ng/mL]	concentration at 2 h [1, 11] [ng/mL]	concentration at 2 h [1, 12] [ng/mL]	concentration at 4 h [1, 13] [ng/mL]	concentration at 4 h [1, 14] [ng/mL]	concentration at 7 h [1, 15] [ng/mL]	concentration at 7 h [1, 16] [ng/mL]	concentration at 7 h [1, 17] [ng/mL]	concentration at 7 h [1, 18] [ng/mL]	concentration at 2 h [1, 19] [ng/mL]	concentration at 2 h [1, 20] [ng/mL]	concentration at 4 h [1, 21] [ng/mL]	concentration at 4 h [1, 22] [ng/mL]	concentration at 4 h [1, 23] [ng/mL]	concentration at 7 h [1, 24] [ng/mL]	concentration at 7 h [1, 25] [ng/mL]	concentration at 7 h [1, 26] [ng/mL]	also measured
COc1cccc(CNc2ccc(S(=O)(=O)Nc3cccc(C(F)(F)F)c3)cc2)c1O [Compound A2]	199	144	333	118	127	96	31	49.3	16.4	27.4	145	230	74.3	38.9	81.2	91.3	106	76.8	Concentration in Plasma, Mouse 2 ([1]; IV 30 mg/kg, 4 h): *1369.6 ng/ml; Concentration in Plasma, Mouse 2 ([1]; PO 30 mg/kg, 2 h): *6042.8 ng/ml; Concentration in Plasma, Mouse 3 ([1]; PO 30 mg/kg, 7 h): *301.8 ng/ml; concentration at 4 h ([1]; iv, IV 30 mg/kg, 4 h, n=3 (outliers excluded), read-out: Concentration in Plasma, Mean): 112 ng/mL; concentration at 2 h ([1]; po, PO 30 mg/kg, 2 h, read-out: Concentration in Plasma, Mouse 1): 59 ng/mL; concentration at 4 h ([1]; po, PO 30 mg/kg, 4 h, read-out: Concentration in Plasma, Mouse 2): 103 ng/mL
COc1cccc(CNc2ccc(S(=O)(=O)Nc3cccc(C4(C(F)(F)F)CC4)c3)cc2)c1O [Compound A4, 4-((2-hydroxy-3-methoxybenzyl)amino)-N-(3-(1-(trifluoromethyl)cyclopropyl)phenyl)benzenesulfonamide]	112	94.2	172	71	20.8	20.6	10.2	24.1	5.6	0.8	5260	410	33.6	33.4	33.8	29	33.2	22.9	Concentration in Plasma, Mouse 1 ([1]; PO 30 mg/kg, 2 h): *20.2 ng/ml; Concentration in Plasma, Mouse 2 ([1]; PO 30 mg/kg, 4 h): *127.5 ng/ml; concentration at 4 h ([1]; iv, IV 30 mg/kg, 4 h, read-out: Concentration in Plasma, Mouse 2): 28.8 ng/mL; concentration at 2 h ([1]; po, PO 30 mg/kg, 2 h, read-out: Concentration in Plasma, Mouse 2): 642 ng/mL; concentration at 7 h ([1]; po, PO 30 mg/kg, 7 h, read-out: Concentration in Plasma, Mouse 3): 30.9 ng/mL
COc1cccc(CNc2ccc(S(=O)(=O)Nc3nc4ccccc4s3)cc2)c1O [ML355]	–	–	–	–	–	–	–	–	–	–	–	–	–	–	–	–	–	–	selectivity versus bovine COX-1 [2]: > 100 fold; tolerance in preclinical studies [3]: relatively good tolerance; pharmacokinetics [4]: reasonable pharmacokinetics; thrombus formation and vessel occlusion in vivo [5]: impair thrombus formulation and vessel occlusion in vivo; effects on hemostasis ([5]; in vivo): minimal affects on hemostasis; solubility [6]: limited solubility; selectivity versus reticulocyte 15-human lipoxygenase type-1 [7]: > 50 fold; selectivity versus human COX-2 (human COX-2): > 100 fold; selectivity versus epithelial 15-human lipoxygenase type-2 [8]: > 50 fold; selectivity versus 5-human lipoxygenase (5-human lipoxygenase): > 50 fold
